# Article PMC10154247, “Complex regulation in a Comamonas platform for diverse aromatic carbon metabolism” (Nature Chemical Biology, 2023)
# Key:
# Mdh = molecular target: T1, Mdh (Comamonas testosteroni, UniProt A0A096F047); experiment: NAD(P)H oxidation at […] nm; assay type: biochemical; conditions: 10 mM oxaloacetate, 5 mM MgCl2, pH 7.5, 30 °C
# T1 construct: gene mdh_1; C-terminal His tag, start and stop codons deleted; recombinant in E. coli BL21 (DE3), Ni-NTA
# [1] = molecular target: T2, PobA (4HB 3-monooxygenase) (Comamonas testosteroni, UniProt B7WVQ9); experiment: NAD(P)H oxidation at […] nm; assay type: biochemical; conditions: 10 mM 4HB, 5 mM MgCl2, pH 7.5, 30 °C
# T2 construct: gene CtesDRAFT_PD2627; N-terminal His tag with TEV site, start codon removed; recombinant in E. coli BL21 (DE3), Ni-NTA
# ME-2 = molecular target: T3, ME-2 (Comamonas testosteroni, UniProt B7X1D4); experiment: NADH formation at […] nm; conditions: 0.5 and 2 mM, 1 mM L-malate, 0.5 mM NAD+, 5 mM MnCl2, pH 7.5, 30 °C
# T3 construct: gene CtesDRAFT_PD5092
# T3 sequence (B7X1D4 2-769): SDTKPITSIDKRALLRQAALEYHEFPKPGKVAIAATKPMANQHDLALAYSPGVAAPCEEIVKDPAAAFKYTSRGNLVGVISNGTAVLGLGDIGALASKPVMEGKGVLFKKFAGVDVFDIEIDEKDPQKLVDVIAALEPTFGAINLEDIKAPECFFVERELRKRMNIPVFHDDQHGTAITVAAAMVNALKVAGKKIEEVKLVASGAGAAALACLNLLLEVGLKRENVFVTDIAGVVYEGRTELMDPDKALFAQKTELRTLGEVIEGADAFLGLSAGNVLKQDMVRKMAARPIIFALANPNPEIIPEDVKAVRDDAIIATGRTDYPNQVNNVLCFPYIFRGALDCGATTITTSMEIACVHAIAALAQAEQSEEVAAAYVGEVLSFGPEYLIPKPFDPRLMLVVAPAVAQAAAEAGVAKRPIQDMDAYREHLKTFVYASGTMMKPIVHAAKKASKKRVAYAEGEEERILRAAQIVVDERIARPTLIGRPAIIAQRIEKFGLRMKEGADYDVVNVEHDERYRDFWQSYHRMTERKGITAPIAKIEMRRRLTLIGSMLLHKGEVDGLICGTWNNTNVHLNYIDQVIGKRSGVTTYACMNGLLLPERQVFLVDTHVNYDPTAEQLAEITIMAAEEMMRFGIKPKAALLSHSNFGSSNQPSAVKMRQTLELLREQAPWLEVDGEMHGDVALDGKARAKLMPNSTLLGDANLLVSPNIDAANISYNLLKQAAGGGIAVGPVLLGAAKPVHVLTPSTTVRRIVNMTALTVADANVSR
# ME-1 = molecular target: T4, ME-1 (Comamonas testosteroni, UniProt B7WXG5); experiment: NADPH formation at […] nm; conditions: allosteric activator, 0.5 and 2 mM; 1 mM L-malate, 0.5 mM NADP+, 5 mM MnCl2, pH 7.5, 30 °C
# T4 construct: gene CtesDRAFT_PD0934
# T4 sequence (B7WXG5 2-765): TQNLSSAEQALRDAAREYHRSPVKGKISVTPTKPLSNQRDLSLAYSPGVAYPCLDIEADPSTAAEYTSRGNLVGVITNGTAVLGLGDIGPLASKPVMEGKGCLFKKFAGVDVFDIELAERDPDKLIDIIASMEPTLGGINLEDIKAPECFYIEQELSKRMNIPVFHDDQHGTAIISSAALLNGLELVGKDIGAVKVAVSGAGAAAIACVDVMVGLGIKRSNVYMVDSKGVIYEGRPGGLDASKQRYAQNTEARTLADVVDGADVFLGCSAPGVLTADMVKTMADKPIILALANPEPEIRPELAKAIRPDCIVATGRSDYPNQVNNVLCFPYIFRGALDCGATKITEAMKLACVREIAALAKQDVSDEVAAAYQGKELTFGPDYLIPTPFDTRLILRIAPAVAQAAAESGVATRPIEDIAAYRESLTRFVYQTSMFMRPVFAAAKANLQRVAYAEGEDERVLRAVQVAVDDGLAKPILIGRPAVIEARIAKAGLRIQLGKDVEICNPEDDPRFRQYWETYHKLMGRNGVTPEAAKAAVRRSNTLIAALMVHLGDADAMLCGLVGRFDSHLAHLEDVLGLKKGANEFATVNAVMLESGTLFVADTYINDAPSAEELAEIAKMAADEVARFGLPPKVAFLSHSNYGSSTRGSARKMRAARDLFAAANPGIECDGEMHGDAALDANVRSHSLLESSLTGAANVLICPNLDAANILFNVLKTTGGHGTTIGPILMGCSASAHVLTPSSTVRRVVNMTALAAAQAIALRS
# PEPs (PEP synthase) = molecular target: T5, PEPs (PEP synthase) (Comamonas testosteroni, UniProt B7X5R8); experiment: pyruvate consumption by HPLC-RI; assay type: biochemical; conditions: allosteric inhibitor, 2 or 5 mM (printed as 'up to'); 1 mM pyruvate, 1.5 mM ATP, 5 mM MgCl2, pH 7.5, 30 °C
# T5 construct: gene CtesDRAFT_PD3828; N-terminal His tag with TEV site, start codon removed; recombinant in E. coli BL21 (DE3), Ni-NTA
# T5 sequence (B7X5R8 2-796): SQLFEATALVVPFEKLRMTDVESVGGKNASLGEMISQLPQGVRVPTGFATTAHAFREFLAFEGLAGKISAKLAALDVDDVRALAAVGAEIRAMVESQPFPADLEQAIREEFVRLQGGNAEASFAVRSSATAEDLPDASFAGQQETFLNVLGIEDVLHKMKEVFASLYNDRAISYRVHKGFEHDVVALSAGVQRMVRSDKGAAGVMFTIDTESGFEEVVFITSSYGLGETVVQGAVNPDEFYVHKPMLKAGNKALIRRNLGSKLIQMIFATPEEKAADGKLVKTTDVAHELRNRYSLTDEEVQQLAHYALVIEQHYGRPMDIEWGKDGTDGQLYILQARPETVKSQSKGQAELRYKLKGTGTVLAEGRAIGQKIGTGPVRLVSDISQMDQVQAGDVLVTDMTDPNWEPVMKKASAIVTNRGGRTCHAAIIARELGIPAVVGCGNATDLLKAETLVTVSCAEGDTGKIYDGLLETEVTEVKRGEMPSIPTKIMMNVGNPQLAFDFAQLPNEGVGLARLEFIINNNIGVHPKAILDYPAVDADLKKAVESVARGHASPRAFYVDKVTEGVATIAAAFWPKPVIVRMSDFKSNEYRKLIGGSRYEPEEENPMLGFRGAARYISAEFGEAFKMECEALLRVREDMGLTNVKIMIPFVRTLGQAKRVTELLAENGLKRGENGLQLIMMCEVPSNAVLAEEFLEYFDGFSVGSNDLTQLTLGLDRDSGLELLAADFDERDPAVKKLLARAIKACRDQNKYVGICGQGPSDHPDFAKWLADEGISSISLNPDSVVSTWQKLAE
# T1 sequence (A0A096F047 2-329): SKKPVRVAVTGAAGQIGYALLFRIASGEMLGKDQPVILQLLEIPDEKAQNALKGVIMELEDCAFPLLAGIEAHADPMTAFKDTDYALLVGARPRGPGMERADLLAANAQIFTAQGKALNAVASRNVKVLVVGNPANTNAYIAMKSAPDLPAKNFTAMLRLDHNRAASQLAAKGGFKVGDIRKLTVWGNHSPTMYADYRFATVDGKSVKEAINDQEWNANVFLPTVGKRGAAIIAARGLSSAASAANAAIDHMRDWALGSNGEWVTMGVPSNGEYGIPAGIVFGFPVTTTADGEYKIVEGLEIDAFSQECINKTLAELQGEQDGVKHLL
compound,measurement,setting,value
NC(=O)C1=CN([C@@H]2O[C@H](COP(=O)(O)OP(=O)(O)OC[C@H]3O[C@@H](n4cnc5c(N)ncnc54)[C@H](O)[C@@H]3O)[C@@H](O)[C@H]2O)C=CC1 [NADH],NAD(P)H oxidation at 340 nm,Mdh,NADH was the preferred cofactor for ME-2 and Mdh
NC(=O)C1=CN([C@@H]2O[C@H](COP(=O)(O)OP(=O)(O)OC[C@H]3O[C@@H](n4cnc5c(N)ncnc54)[C@H](OP(=O)(O)O)[C@@H]3O)[C@@H](O)[C@H]2O)C=CC1 [NADPH],NAD(P)H oxidation at 340 nm,[1],"NADPH was the cofactor for PobA and for ME-1, IDH1 and IDH2"
O=C(O)CCC(=O)O [succinate],relative activity (%),ME-2; allosteric activator,moderate activation in the presence of succinate and glutamate
same,relative activity (%),ME-1,moderate activation in the presence of succinate and glutamate
O=C(O)CCC(=O)C(=O)O [αKG],% decrease in pyruvate consumption,PEPs (PEP synthase),~ 35%
same,relative activity (%),ME-2; allosteric inhibitor,only high concentrations of αKG had a significant inhibitory impact on ME-2
